This passage reports MIC results from DBAASP.

What all share (experiment): ≥ marks a high value that may be exact or a test limit, other limits are often not marked, values filed in µg/mL are converted to µM
Test [1] relates to Escherichia coli ATCC 25922.
The subject of test [2] is Staphylococcus aureus ATCC 25923.
In test [3] the test system is Streptococcus sanguinis ATCC 10556.
In test [4] the test system is Aggregatibacter actinomycetemcomitans ATCC 29522.
In test [5] the test system is Aeromonas hydrophila.
Test [6] has as its system Streptococcus pyogenes.
For test [7], the system named is Vibrio alginolyticus.
Test [8] deals with Escherichia coli.
For test [9], the system named is Vibrio parahaemolyticus.
Test [10] relates to Vibrio fluvialis.
In test [11] the test system is Staphylococcus aureus.
Test [12] concerns Klebsiella pneumoniae Q14-0095.
For test [13], the system named is Staphylococcus aureus Q14-0320.
For test [14], the system named is Staphylococcus aureus ATCC 29213.
Test [15] relates to Staphylococcus aureus NCTC 12493.
For test [16], the system named is Pseudomonas aeruginosa.
In test [17] the test system is Acinetobacter baumannii Q12-0809.
Test [18] concerns Klebsiella pneumoniae NCTC 13442.
The test system of test [19] is Campylobacter jejuni NCTC 11351.
For test [20], the system named is Acinetobacter baumannii Q13-0717.
The subject of test [21] is Pseudomonas aeruginosa Q14-0208.
In test [22] the test system is Pseudomonas aeruginosa ATCC 27853.
Test [23] has as its system Klebsiella pneumoniae ATCC 700603.
In test [24] the test system is Fusarium solani MTCC 10158.
Test [25] relates to Enterococcus faecium ATCC 51559.
In test [26] the test system is Pseudomonas aeruginosa CGMCC 1.2421.
Test [27] relates to Pseudomonas aeruginosa E411-17.
Test [28] has as its system Staphylococcus aureus USA 300.
Test [29] deals with Escherichia coli K-12.
The test system of test [30] is Klebsiella pneumoniae ATCC 13883.
For test [31], the system named is Acinetobacter baumannii B28-16.
The subject of test [32] is Escherichia coli CGMCC 1.8732.
In test [33] the test system is Enterococcus faecium V284-17.
In test [34] the test system is Staphylococcus epidermidis 1457.
Test [35] relates to Pseudomonas aeruginosa PAO1.
Test [36] concerns Staphylococcus aureus CGMCC 1.8721.
The subject of test [37] is Klebsiella pneumoniae CGMCC 1.1736.
The subject of test [38] is Klebsiella pneumoniae E406-17.
In test [39] the test system is Staphylococcus aureus UAMS-1.
The test system of test [40] is Staphylococcus epidermidis CGMCC 1.4260.
For test [41], the system named is Escherichia coli E423-17.
In test [42] the test system is Streptococcus sanguinis ATCC 49295.
The test system of test [43] is Streptococcus mutans UA159.
Test [44] has as its system Streptococcus gordonii ATCC 10558.
Test [45] has as its system Streptococcus mutans GS-5.

Converted amounts (≈) assume the structure as drawn. “And” between values parts separate entries of the source, which are not always exact repeats. Equal entries are not always repeated. Where only a bound is given, the exact number is not on record here.

As to `CC[C@H](C)[C@H](NC(C)=O)C(=O)N[C@@H](Cc1c[nH]c2ccccc12)C(=O)N[C@@H](CC(C)C)C(=O)N[C@H](C(=O)N[C@@H](C)C(=O)N[C@@H](CC(C)C)C(=O)N[C@@H](CCCCN)C(=O)N[C@@H](Cc1ccccc1)C(=O)N[C@@H](CC(C)C)C(=O)NCC(=O)N[C@@H](CCCCN)C(=O)N[C@@H](CC(N)=O)C(=O)N[C@@H](CC(C)C)C(=O)NCC(=O)N[C@@H](CCCCN)C(=O)N[C@@H](CC(C)C)C(=O)N[C@@H](C)C(=O)N[C@@H](CCCCN)C(=O)N[C@@H](CCC(N)=O)C(=O)N[C@@H](CCC(N)=O)C(=O)N[C@@H](CC(C)C)C(=O)N[C@@H](C)C(=O)N[C@@H](CCCCN)C(=O)N[C@@H](CC(C)C)C(N)=O)[C@@H](C)O` [IWLTALKFLGKNLGKLAKQQLAKL], the MIC is 0.71 µM (≈ 1.94 µg/mL) in test [1], 2.85 µM (≈ 7.8 µg/mL) in test [2], 5.7 µM (≈ 15.6 µg/mL) in [3] and 11.4 µM (≈ 31.2 µg/mL) in test [4].
For `CC[C@H](C)[C@H](NC(=O)[C@H](C)NC(=O)[C@H](CC(=O)O)NC(=O)[C@H](CCCN=C(N)N)NC(=O)[C@@H](NC(=O)[C@@H](N)CCCN=C(N)N)[C@@H](C)CC)C(=O)N[C@@H](C)C(=O)N[C@@H](Cc1cnc[nH]1)C(=O)NCC(=O)N[C@@H](Cc1ccc(O)cc1)C(=O)N[C@H](C(=O)N[C@H](C(=O)N[C@@H](CC(=O)O)C(=O)N[C@@H](CCCCN)C(=O)N[C@H](C(=O)O)C(C)C)C(C)C)[C@@H](C)CC` [RIRDAIAHGYIVDKV], the MIC in [5] was 18.1 µM (≈ 31.3 µg/mL); in [6], not below 72.4 µM; in test [7], 18.1 µM (≈ 31.3 µg/mL); in [8] it was more than 145 µM; in test [9], not below 145 µM; in test [10], not below 72.4 µM. The same compound yielded an MIC in test [11] of more than 145 µM.
In the case of `C[C@H](NC(=O)[C@H](CCCN=C(N)N)NC(=O)[C@H](Cc1ccc(O)cc1)NC(=O)[C@H](Cc1cnc[nH]1)NC(=O)[C@H](Cc1c[nH]c2ccccc12)NC(=O)[C@H](CCCN=C(N)N)NC(=O)[C@H](Cc1c[nH]c2ccccc12)NC(=O)[C@H](C)NC(=O)[C@@H](NC(=O)CN)[C@@H](C)O)C(=O)N[C@@H](CCCN=C(N)N)C(=O)N[C@@H](CO)C(=O)O` [GTAWRWHYRARS], the MIC in test [12] was not below 82.8 µM; in test [13], not below 82.8 µM; in test [14], more than 82.8 µM; in test [15], not below 82.8 µM; in test [16], more than 331 µM; in test [17] it was not below 82.8 µM. In addition, the MIC is not below 82.8 µM in [18]; not below 82.8 µM in test [19]; 82.8 µM (≈ 128 µg/mL) in [8]; not below 82.8 µM in test [20]; not below 82.8 µM in test [21]; 82.8 µM (≈ 128 µg/mL) in test [22]. Moreover, in test [23], the MIC is more than 82.8 µM.
Consider `NCCCC[C@H](NC(=O)[C@H](CCCCN)NC(=O)[C@H](CCCN=C(N)N)NC(=O)[C@H](CCCN=C(N)N)NC(=O)[C@H](CCCN=C(N)N)NC(=O)[C@H](CCCN=C(N)N)NC(=O)[C@H](CCC(N)=O)NC(=O)[C@H](CCCN=C(N)N)NC(=O)[C@H](CCCN=C(N)N)NC(=O)[C@H](CCCCN)NC(=O)[C@H](CCCCN)NC(=O)[C@@H](N)CCCN=C(N)N)C(=O)N[C@@H](CCCN=C(N)N)C(=O)N[C@@H](CCCN=C(N)N)C(=O)N[C@@H](CCC(N)=O)C(=O)N[C@@H](CCCN=C(N)N)C(=O)N[C@@H](CCCN=C(N)N)C(=O)N[C@@H](CCCN=C(N)N)C(=O)O` [RKKRRQRRRRKKRRQRRR], for which the MIC in [24] is 7.07 µM and 21.2 µM.
In the case of `CC[C@H](C)[C@H](NC(=O)[C@H](CCCNC(=N)N)NC(=O)[C@H](CCC(N)=O)NC(=O)[C@@H](NC(=O)[C@@H](NC(=O)[C@H](CCCNC(=N)N)NC(=O)[C@H](CCCCN)NC(=O)[C@H](Cc1ccccc1)NC(=O)CN)[C@@H](C)CC)C(C)C)C(=O)N[C@@H](CCCCN)C(=O)N[C@@H](CC(=O)O)C(=O)N[C@@H](Cc1ccccc1)C(=O)N[C@@H](CC(C)C)C(=O)N[C@@H](CCCNC(=N)N)C(=O)N[C@@H](CC(N)=O)C(=O)N[C@@H](CC(C)C)C(=O)N[C@H](C(N)=O)C(C)C` [GFKRIVQRIKDFLRNLV], the MIC in test [25] was 6.25 µM (≈ 13.1 µg/mL); in test [26], 6.25 µM (≈ 13.1 µg/mL); in test [27], 16 µM (≈ 33.6 µg/mL); in test [28], 7.5 µM and 3.1 µM and 7 µM; in test [29], 7.5 µM and 14 µM; in test [1] it was 4.4 µM (≈ 9.25 µg/mL). Moreover, the MIC in test [30] is 3.1 µM (≈ 6.51 µg/mL); in test [31], 1.6 µM and 4 µM; in test [32], 6.25 µM (≈ 13.1 µg/mL); in test [33] it was 2 µM (≈ 4.2 µg/mL); in test [34] it was 1.6 µM (≈ 3.36 µg/mL); in test [35], 25 µM (≈ 52.5 µg/mL). In addition, the MIC in test [36] was 6.25 µM (≈ 13.1 µg/mL); in test [37] it was 6.25 µM (≈ 13.1 µg/mL); in test [38] it was not below 32 µM; in test [39], 7 µM and 3.1 µM; in [40], 3.12 µM (≈ 6.57 µg/mL); in test [41], 16 µM (≈ 33.6 µg/mL).
For `CC(C)C[C@H](NC(=O)[C@H](CCCN=C(N)N)NC(=O)[C@H](Cc1ccccc1)NC(=O)[C@H](Cc1ccccc1)NC(=O)[C@@H](N)[C@@H](C)O)C(=O)N[C@@H](Cc1ccccc1)C(=O)N[C@@H](CC(N)=O)C(=O)N[C@@H](CCCN=C(N)N)C(=O)N[C@@H](CO)C(=O)N[C@@H](Cc1ccccc1)C(=O)N[C@H](C(=O)NCC(=O)N[C@@H](CCCN=C(N)N)C(=O)N[C@@H](CCCN=C(N)N)C(=O)N[C@@H](CCCN=C(N)N)C(=O)N[C@@H](CCCN=C(N)N)C(=O)N[C@@H](CO)C(=O)N[C@H](C(=O)N[C@@H](CCC(N)=O)C(=O)N[C@@H](Cc1c[nH]c2ccccc12)C(=O)N[C@@H](CS)C(=O)N[C@@H](C)C(=O)O)C(C)C)[C@@H](C)O` [TFFRLFNRSFTGRRRRSVQWCA], the MIC in test [42] was not below 35.7 µM; in test [43] it was 3.82 µM (≈ 10.7 µg/mL); in test [44], 17.8 µM (≈ 49.8 µg/mL); in [45], 4.46 µM (≈ 12.4 µg/mL).
